Legend:
FAPs = assay: Cell viability assay (cell counting kit-8) of senescent and non-senescent FAPs treated with inhibitors; format: cell-based, mouse; settings: for IC50: Mus musculus, FAPs
Protocol: (§1) Figure 3 25HC is a senolytic in multiple muscle cell types (A) Targets, compounds, and mechanisms. (B) Timeline of cell viability assay with inhibitors. Cells were pre-cultured for 24 h, treated with Doxo for 24 h, and then treated with inhibitors. Cell viability was analyzed from day 0–7. (C–E) Effects of inhibitors on viability of FAPs, SCs, and HSMMs. Cells were treated with inhibitors at the indicated concentrations. Cell viability was analyzed on day 3 (HSMMs) or 5 (FAPs and SCs). Blue and red dots indicate non-senescent (NS) and senescent (SEN), respectively. The average value at 0 μM for each group was set at 100% cell viability. p values versus NS were obtained using unpaired two-tailed Student’s t test. ∗p < 0.05, ∗∗p < 0.01, and ∗∗∗p < 0.001.
Figure 4 EC50 fitted curves (triplicates) of inhibitor effects at 3 and 7 days in FAPS and SCs EC50 was defined as the concentration of inhibitors that provokes a response halfway between baseline and maximum senolytic activity. EC50 values were determined by four- parameter logistic modeling using GraphPad Prism 8.0.
Hind limb muscles were digested in DMEM containing 0.5% (w/v) collagenase type II (Worthington) for 90 min at 37 °C with trituration and passed through a 40-μm nylon mesh. Erythrocytes were eliminated by treating with BD Pharm Lyse (BD Biosciences). Cells were resuspended in a washing buffer of PBS with 2% FBS and stained with antibodies for 30 min at 4 °C as described ([Kamizaki et al., 2017]). FAPs and SCs were isolated from the suspension by FACS (Aria II, BD Biosciences) using anti-CD31, CD45, Sca-1, PDGFR and VCAM1 antibodies. FAPs were identified as Sca1/PDGFR-positive and CD31-, CD45- and VCAM1-negative cells ([Uezumi et al., 2010]). SCs were identified as VCAM1-positive and CD31-, CD45-, Sca-1 and PDGFR-negative cells ([Liu et al., 2015]).
(§2) All experiments were performed in incubators at 37 °C, 3% O2 and 5% CO2. Senescence was induced by treatment with either Doxo (250 nM for 24 h) ([Demaria et al., 2017]) or X-irradiation (10 Gy) ([Limbad et al., 2020]). For cell culture studies using 25HC, it was used at the indicated concentrations in the media.
(§3) FAPs and SCs were cultured on Matrigel-coated dishes (BD Biosciences) in growth medium (GM) consisting of DMEM plus 10% FBS, 1% penicillin-streptomycin and 10% MyoCult (STEMCELL Technologies) for 7 days. Human myogenic cell HSMMs (Lonza) were maintained according to the manufacturer’s instructions with SkGM-2 medium (Lonza).
(§4) Cell viability was assessed using a cell counting kit-8 from Dojindo Molecular Technologies, Inc (Cat CK04-20). Cells were incubated with culture media + 10% kit cell viability reagent, 150 μL/well in 96-well plates for 2 h. The supernatant was transferred to a new 96-well plate and absorbance read at 450 nm as recommended in the product datasheet.

[1] = tested on: human skeletal muscle myoblasts (HSMMs); assay: Cell viability assay (cell counting kit-8) of senescent and non-senescent HSMMs treated with inhibitors; format: cell-based; settings: for IC50: Homo sapiens, Myoblast, HSMM
Protocol: as §1, §2, §3, §4

[2] = tested on: human cardiac microvascular endothelial cells (hCMECs); assay: Cell viability assay of NS and Doxo- or IR-induced senescent hCMECs treated with 25HC; format: cell-based; settings: 10 μM after 15 days of treatment; Doxo or IR induced senescence
Protocol: Figure 7 25HC treatment timeline and its effects on NS and SEN hCMECs, hLSCs, hRPTECs, and hACs All cell types were treated with either DMSO, 250 nM Doxo or 10-Gy IR at the times shown. 25HC treatment was started 24 h after Doxo or IR treatment. Cell viability was measured every 3–5 days for 15 days. Optimal treatment times for maximum senolysis are shown for each cell type: day 15 for hCMECs, day 3 for hLSCs, day 9 for hRPTECs and day 12 for hACs. For qRT-PCR: mean ± SE, n =4, ∗p< 0.05, ∗∗p< 0.01, ∗∗∗p<0.001, ∗∗∗∗p<0.0001 by Dunnett’s multiple comparisons test vs DMSO or NS, For cell viability assays: mean ± SE, n =3, ∗∗p< 0.01, ∗∗∗p<0.001, ∗∗∗∗p<0.0001 vs 0 mM by student’s t test.
All experiments were performed in incubators at 37 °C, 3% O2 and 5% CO2. Senescence was induced by treatment with either Doxo (250 nM for 24 h) ([Demaria et al., 2017]) or X-irradiation (10 Gy) ([Limbad et al., 2020]). […]
Cell viability was assessed using a cell counting kit-8 from Dojindo Molecular Technologies, Inc (Cat CK04-20). […] The supernatant was transferred to a new 96-well plate and absorbance read at 450 nm as recommended in the product datasheet. […]
Supplementary Fig. 10 (related to Fig. 6-7). […] Cel l vi abi l i ty was measured every 3–5 days until 15 days. […] Cel l vi abi l i ty was measured every 3–5 days until 15 days. […]

[3] = tested on: Cdkn1a mRNA and SASP factors in skeletal muscle; assay: qRT-PCR of senescence markers, Cryab and SASP factors in skeletal muscles of aged mice given 25HC; format: in vivo, mouse
gastrocnemius muscle = settings: ip, 50 mg/kg, 120 h
CRYAB = tested on: CRYAB; design: method as in Makley et al., 2015; settings: ref Makley et al., 2015; cited from earlier work

## C[C@H](CCCC(C)(C)O)[C@H]1CC[C@H]2[C@@H]3CC=C4C[C@@H](O)CC[C@]4(C)[C@H]3CC[C@]12C [25HC, 25-hydroxycholesterol]
FAPs; Doxo-induced senescence, viability on day 5, 25HC at concentrations between 0.1 and 1 μM
  viability of senescent versus non-senescent FAPs: specifically decreased the viability of senescent FAPs
FAPs; 72 h, 3 days in culture
  IC50: 1700 nM
FAPs; 168 h, 7 days in culture
  IC50: 1200 nM
[1]; Doxo-induced senescence, viability on day 3
  viability of senescent versus non-senescent HSMMs: significantly decreased cell viability
[1]; 72 h, 3 days in culture
  IC50: 7200 nM
[1]; 168 h, 7 days in culture
  IC50: 3700 nM
[2]
  senolysis in hCMECs: induced significant senolysis
[3]; 24–26-month-old mice, both genders, 25HC 50 mg/kg i.p. for 5 days
  Cdkn1a mRNA induction by aging in gastrocnemius and soleus muscles: significantly reduced
[3]; mice treated with 25HC (Figures S17 and S18)
  expression of SASP factors, including IL6, in skeletal muscle: substantially inhibited
Gastrocnemius muscle
  muscle mass restored (gastrocnemius wet weight normalized to body weight): ~23%
CRYAB
  CRYAB aggregation: blocks CRYAB aggregation

From PMC8851282, “Senolysis induced by 25-hydroxycholesterol targets CRYAB in multiple cell types” (iScience, 2022)
